Experimental data as given in patent publication US12186405B2, “Cleavable tetrazine used in bio-orthogonal drug activation” (TAGWORKS PHARMACEUTICALS B.V., priority 2016, dated 2025).

Key:
[1] = Reactivity (second order rate constant k2) between TZ Triggers and TCO Activator 4.9 in MeCN at 20° C.; format: physicochemical
Experimental: The second order rate constant of the reaction (k2) between a TZ and TCO 4.9 was determined under pseudo first order conditions in MeCN at 20° C. using UV spectroscopic monitoring. […] From the decrease of this absorption, the half-life of the pseudo first order reaction between TZ and TCO was determined. The second order rate constant k2 was obtained by calculation from this half-life and the concentration of TCO

[2] = Rate of release of Constructs from IEDDA adducts formed by activation of TZ Trigger with TCO Activator 4.9; format: physicochemical
Experimental: Then, 10 μL of a 50 mM TCO 4.9 stock solution in DMSO (5.0×10^−7 mol TCO) was added. After the complete disappearance of the pink color (this takes typically between 5 and 30 min, and is due to the IEDDA reaction between TZ and TCO thereby forming IEDDA adducts), the sample was diluted with PBS to a total volume of 1 mL (t=0). […] At selected time points, this solution was analyzed by HPLC-PDA/MS. The decrease of the IEDDA adduct absorption(s) and/or the rise of the leaving group absorption indicated the conversion of the release reaction. […] Alternatively, the rate of the release reaction can be indicated by the conversion (in %) after a certain reaction time (in hours).

[3] = Stability of tetrazine (TZ) Triggers in a MeCN/PBS mixture
Experimental: (§1) 10 μL of a 25 mM TZ stock solution in DMSO (2.5×10^−7 mol TZ) was diluted with MeCN and PBS to a total volume of 1 mL. The aqueous solution was incubated at 20° C. or at 37° C. At selected time points, the TZ solution was analyzed by HPLC-PDA/MS.

[4] = Rate of release of Constructs from IEDDA adducts formed by activation of TZ Trigger with TCO Activator 4.9; format: physicochemical; settings: Method F: MeCN at 37° C.; 23 h
[5] = Rate of release of a Construct from the IEDDA adduct in 50% mouse serum/PBS; format: in vitro ADME; settings: 37° C., 21 h
Experimental: 10 μL of a 25 mM TZ stock solution in DMSO (2.5×10^−7 mol TZ) was diluted with MeCN (50 μL), PBS (475 μL), and mouse serum (475 μL). Then, a stock solution of the appropriate TCO (20 μL 50 mM in DMSO; 1.0×10^−6 mol) was added, and the mixture was incubated at 37° C. At selected time points, aliquots (250 μL) were taken, diluted with cold MeCN (500 μL), stored at 4° C. for 30 min, and then centrifuged at 13400 rpm for 5 min. Part of the clear supernatant (250 μL) was diluted with water (500 μL) and the sample was analyzed by HPLC-PDA/MS.

[6] = Stability of TZ Triggers in 50% mouse serum/PBS; format: in vitro ADME; settings: 37° C.
Experimental: The mixture was incubated at 37° C. […] The stability was determined as outlined in Example 5.

physchem = settings: buffer
Experimental: as §1

[7] = Reactivity (k2) as Example 6 but assessed with sTCO 4.8; format: physicochemical; settings: assessed with sTCO 4.8 and not TCO 4.9; MeCN at 20° C.
Experimental: A cuvette was filled with 3 mL of a 3.33 mM TCO solution in MeCN (1.0×10^−5 mol TCO) and this solution was equilibrated at 20° C. […] From the decrease of this absorption, the half-life of the pseudo first order reaction between TZ and TCO was determined. The second order rate constant k2 was obtained by calculation from this half-life and the concentration of TCO

[8] = Rate of release of Constructs as Example 7 but after reaction with sTCO 4.8; format: physicochemical; settings: Method E: 5% MeCN in PBS at 37° C.
Experimental: […] After the complete disappearance of the pink color (this takes typically between 5 and 30 min, and is due to the IEDDA reaction between TZ and TCO thereby forming IEDDA adducts), the sample was diluted with PBS to a total volume of 1 mL (t=0). […] At selected time points, this solution was analyzed by HPLC-PDA/MS. The decrease of the IEDDA adduct absorption(s) and/or the rise of the leaving group absorption indicated the conversion of the release reaction. […] Alternatively, the rate of the release reaction can be indicated by the conversion (in %) after a certain reaction time (in hours).

[9] = tested on: LS174T colon carcinoma xenografts; test: In vivo on-tumor reaction between ADC and TCO activators (tumor blocking, ^111In-TCO probe uptake); parameters: species or system mouse; settings: ADC (2 mg/kg), one hour later ^111In-TCO probe, 4 h after probe injection
Experimental: DOTA-PEG11-TCO probe 4.4 was labeled with indium-111 in 0.2 M ammonium acetate buffer (pH 6.0) for 10 min at 60° C. followed by a DTPA-challenge to complex any unreacted radiometal. The radiolabeling yield (>95%) and radiochemical purity (>95%) of the obtained ^111In-TCO probe was assessed by radio-ITLC and radio-RP-HPLC, respectively. The on-tumor reactivity between AVP0450-15.4 ADC and two different activators, sTCO—COOH (4.8) and sTCO-PEG11-OH (4.6) in two different doses (100 and 1000 eq with respect to ADC) was evaluated with an in vivo competition assay (tumor blocking), as previously described for a CC49-TCO-Dox conjugate and tetrazine-activators (R. Rossin et al., Bioconjug Chem 2016, 27, 1697-1706). Briefly, mice bearing subcutaneous LS174T colon carcinoma xenografts (n=4 per group) were administered the ADC (2 mg/kg) followed after 48 h by the activator and, one hour later, by the ^111In-TCO probe (1 eq with respect to ADC). The probe uptake in tumors was then compared with mice that received the ADC followed only by the ^111In-TCO probe (no blocking) and with mice that received the ^111In-TCO probe alone (complete blocking). All mice were euthanized 4 h after probe injection. Blood samples were obtained from heart puncture, tumors and other tissues of interest were dissected, blotted dry, weighed and counted in a gamma-counter.

[10] = Method C: 20% MeCN in PBS at 37° C., 16 h
[11] = Method A: 33% MeCN in PBS at 20° C., 16 h

CC(OC(=O)NCc1ccccc1)c1nnc(C(C)OC(=O)NCc2ccccc2)nn1 (mixture of isomers) [Compound 2.5]
Reactivity k2 ([1]; TZ with TCO in MeCN at 20° C.): 1.5 M⁻¹ s⁻¹

CC(OC(=O)N(C)Cc1ccccc1)c1nnc(C(C)OC(=O)N(C)Cc2ccccc2)nn1 (mixture of isomers) [Compound 2.36]
Release % (conversion) [2, 10]: 100% (16 h)

CC(OC(=O)N(c1ccccc1)C(C)C)c1nnc(C(C)OC(=O)N(c2ccccc2)C(C)C)nn1 (mixture of isomers) [Compound 2.40]
Release % (conversion) ([2]; Method C: 20% MeCN in PBS at 37° C., 22 h): 100% (22 h)
Reactivity k2 ([1]; TZ with TCO in MeCN at 20° C.): 1.22 M⁻¹ s⁻¹

Cc1cc(C)cc(NC(=O)OC(C)c2nnc(-c3ccccc3)nn2)c1 (racemic) [Compound 2.17]
Reactivity k2 ([1]; TZ with TCO in MeCN at 20° C.): 4.5 M⁻¹ s⁻¹

CC(C)c1nnc(C(C)OC(=O)N(C)c2ccccc2)nn1 (racemic) [Compound 2.20]
Release % (conversion) ([2]; Method C: 20% MeCN in PBS at 37° C., 1.3 h): 45%
Release % (conversion) [2, 10]: 100%
Reactivity k2 ([1]; TZ with TCO in MeCN at 20° C.): 0.19 M⁻¹ s⁻¹

CC(OC(=O)N(C)Cc1ccccc1)c1nnc(-c2ccccc2)nn1 (racemic) [Compound 2.21]
Reactivity k2 ([1]; TZ with TCO in MeCN at 20° C.): 2.54 M⁻¹ s⁻¹

CC(OC(=O)N(C)c1ccccc1)c1nnc(-c2ccccc2)nn1 (racemic) [Compound 2.22]
Reactivity k2 ([1]; TZ with TCO in MeCN at 20° C.): 2.51 M⁻¹ s⁻¹

O=C(NCc1ccccc1)OCc1nnc(COC(=O)NCc2ccccc2)nn1 [Compound 2.4]
Reactivity k2 ([1]; TZ with TCO in MeCN at 20° C.): 24 M⁻¹ s⁻¹

CC(OC(=O)c1ccccc1)c1nnc(C(C)OC(=O)c2ccccc2)nn1 (centres unmarked) [Compound 2.7]
half-life at 250 µM [3]: 18 h
Release % (conversion) [2, 11]: 96% (16 h)

CC(OC(=O)OCc1ccccc1)c1nnc(C(C)OC(=O)OCc2ccccc2)nn1 (centres unmarked) [Compound 2.8]
half-life at 250 µM [3]: 6.5 h
Release % (conversion) [2, 11]: 100% (16 h)

O=C(OCc1nnc(-c2ccccc2)nn1)Oc1ccccc1 [Compound 2.18]
half-life at 250 µM [3]: < 4 h
Release % (conversion) [4]: 10% (23 h)

CC(C)c1nnc(COC(=O)N(C)Cc2ccccc2)nn1 [Compound 2.19]
Release % (conversion) ([5]; Dienophile 4.0, axial isomer): 61% (21 h)
Stability t1/2 [6]: 32 h
Reactivity k2 ([1]; TZ with TCO in MeCN at 20° C.): 0.79 M⁻¹ s⁻¹

CN(Cc1ccccc1)C(=O)OCc1nnc(CCN(C)C(=O)OC(C)(C)C)nn1 [Compound 2.24]
Release % (conversion) ([5]; Dienophile 4.0, axial isomer): 51% (21 h)
Stability t1/2 [6]: 16 h
Reactivity k2 ([1]; TZ with TCO in MeCN at 20° C.): 4.6 M⁻¹ s⁻¹

CC(C)c1nnc(C(C)OC(=O)N(Cc2ccccc2)C(C)C)nn1 (centres unmarked) [Compound 2.42]
half-life at 250 µM [3]: 650 h
Release % (conversion) ([5]; Dienophile 4.8, endo isomer): 77% (21 h)
Release % (conversion) [2, 10]: 100% (16 h)
half-life at 248 µM ([6]; 50% mouse serum in PBS, read-out: Stability t1/2 (converted)): 55 h
Reactivity k2 ([1]; TZ with TCO in MeCN at 20° C.): 0.21 M⁻¹ s⁻¹

CC(OC(=O)N(C)Cc1ccccc1)c1nnc(-c2ccc(NC(=O)OC(C)(C)C)cc2)nn1 (centres unmarked) [Compound 2.48]
half-life at 250 µM [3]: > 4800 h
Reactivity k2 ([1]; TZ with TCO in MeCN at 20° C.): 1.46 M⁻¹ s⁻¹

CC(OC(=O)N(C)Cc1ccccc1)c1nnc(-c2ccc(N)cc2)nn1 (centres unmarked) [Compound 2.49]
half-life at 250 µM [3]: > 4800 h
Reactivity k2 ([1]; TZ with TCO in MeCN at 20° C.): 0.44 M⁻¹ s⁻¹

O=C(Nc1ccccc1)OC/C=C/c1nnc(-c2ccccc2)nn1 [Compound 2.53]
half-life at 250 µM [3]: > 400 h

CC(C)c1nnc(/C=C/COC(=O)Nc2ccccc2)nn1 [Compound 2.57]
half-life at 250 µM (physchem): > 400 h
Reactivity k2 ([1]; TZ with TCO in MeCN at 20° C.): 0.33 M⁻¹ s⁻¹

O=C(NCc1nnc(CNC(=O)Oc2ccccc2)nn1)Oc1ccccc1 [Compound 3.2]
Release % (conversion) ([2]; Method B: 33% MeCN in PBS at 37° C., 19 h): 25% (19 h)

O=C(NC1CCCC1c1nnc(-c2ccccc2)nn1)Oc1ccccc1 (centres unmarked) [Compound 3.25]
half-life (physchem): > 140 h
Release % (conversion) ([2]; Method G: 50% MeCN in PBS at 37° C., 16 h): 57% (16 h)

O=C(Oc1ccccc1)N1CCCC1c1nnc(-c2ccccc2)nn1 (centres unmarked) [Compound 3.27]
half-life at 250 µM [3]: > 150 h
Release % (conversion) ([2]; Method C: 20% MeCN in PBS at 37° C., 24 h): 49%
Release % (conversion) ([2]; Method C: 20% MeCN in PBS at 37° C., 48 h): 72%

CCN(Cc1nnc(-c2cccc(NC(=O)COCCOCCOCCOCCOCCOCCOCCOCCOCCOCCOC)c2)nn1)C(=O)Oc1ccc(COC(=O)Nc2ccc3c(C)cc(=O)oc3c2)cc1 [Compound 3.33]
half-life (physchem): 200 h
Reactivity k2 [7]: 520 ([5]) M^−1 s^−1
Release % (conversion) ([2]; Method E: 5% MeCN in PBS at 37° C., 1 h): 50%
Release % (conversion) ([2]; Method E: 5% MeCN in PBS at 37° C., 4 h): 80%
Release % (conversion) ([2]; Method E: 5% MeCN in PBS at 37° C., 72 h): 90%
Reactivity k2 ([1]; TZ with TCO in MeCN at 20° C. (cyclization series)): 4.7 M⁻¹ s⁻¹
Release % (conversion) ([8]; 1 h): 20%
Release % (conversion) ([8]; 8 h): 80%

O=C(NCCOCCOCCOCCOCCOCCOCCOCCOCCOCCO)[C@@H]1[C@@H]2CC/C=C/CC[C@@H]21 [Compound 4.6]
^111In-uptake in tumor ([9]; after 48 h activator 100 eq): 0.15 ± 0.05 % ID/g
^111In-uptake in tumor ([9]; after 48 h activator 1000 eq): 0.14 ± 0.52 % ID/g

O=C(O)[C@@H]1[C@@H]2CC/C=C/CC[C@@H]21 [Compound 4.8, (E-endo)-bicyclo[6.1.0]non-4-ene-9-carboxylic acid]
^111In-uptake in tumor ([9]; after 48 h activator 100 eq): 0.13 ± 0.03 % ID/g
^111In-uptake in tumor ([9]; after 48 h activator 1000 eq): 0.10 ± 0.03 % ID/g
